Where two headings read alike, the source gives them in different places. Numbered stars: 1 amine (or outer) side, 2 acyl side, 3 side chain; on linkers, the order of the positions; unused ones are H or OH. Square brackets hold non-standard residues; d marks the D form. Side chains are listed from the residue outwards. Peptide text beside a SMILES is read from it. * marks the point of attachment. X3 = O=C(O)CCCCCCCCCCCCCCCCCCC(=O)N[C@@H](CCC(=O)NCCCOCCOCCOCCCNC(=O)COCC(=O)*)C(=O)O; C20 diacid = O=C(O)CCCCCCCCCCCCCCCCCCC(=O)*; γGlu = O=C(O)[C@H](CCC(=O)[*:2])N[*:1]; εLys = N[C@@H](CCCCN[*:1])C(=O)[*:2]; Trx = NC[C@H]1CC[C@H](C(=O)O)CC1; AEEA = NCCOCCOCC(=O)O; Aib = CC(C)(N)C(=O)O
How the values were obtained:
[1] = biological target: T1, human GLP-1 receptor (Homo sapiens, UniProt P43220); assay: GLP-1 receptor binding, competitive binding assay (125I-GLP-1, SPA) on isolated membranes;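 note: test compounds added at a range of concentrations to membranes from cells expressing the human GLP-1 receptor, scored by displacement of labelled ligand, read with WGA SPA beads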
T1 construct: expressed in transfected cells; host or cells: membranes prepared from BHK cells (parent line BHKTS13), clone FCW467-12A

[2] = biological target: T1, human GLP-1 receptor; assay: In vitro potency, CRE luciferase reporter gene assay in BHK cells expressing the human GLP-1 receptor; type: cell-based; settings: whole cell reporter gene assay, 3 h incubation, no HSA, averages of at least two replicates
Protocol: The purpose of this example is to test the activity, or potency, of the GLP-1 derivatives in vitro. The in vitro potency is the measure of human GLP-1 receptor activation in a whole cell assay.
Semaglutide was included for comparison.
In vitro potency was determined by measuring the response of the human GLP-1 receptor in a reporter gene assay. The assay was performed in a stably transfected BHK cell line that expresses the human GLP-1 receptor and contains the DNA for the cAMP response element (CRE) coupled to a promoter and the gene for firefly luciferase (CRE luciferase). When the human GLP-1 receptor is activated it results in the production of cAMP, which in turn results in the luciferase protein being expressed. When assay incubation is completed the luciferase substrate (luciferin) is added and the enzyme converts luciferin to oxyluciferin to produce bioluminescence. The luminescence is measured as the readout for the assay.
The cells used in this assay (clone FCW467-12A/KZ10-1) were BHK cells with BHKTS13 as a parent cell line. The cells were derived from a clone (FCW467-12A) that expresses the human GLP-1 receptor and were established by further transfection with CRE luciferase to obtain the current clone.
The cells were cultured at 5% CO2 in Cell Culture Medium. They were aliquoted and stored in liquid nitrogen. Before each assay an aliquot is taken up and washed twice in PBS before being suspended at the desired concentration in the assay specific buffer. For 96-well plates the suspension was made to give a final concentration of 5×10^3 cells/well.
The following chemicals were used in the assay: Pluronic F-68 (10%) (Gibco 2404), human serum albumin (HSA) (Sigma A9511), ovalbumin (Sigma A5503), DMEM w/o phenol red (Gibco 11880-028), 1 M Hepes (Gibco 15630), Glutamax 100× (Gibco 35050) and steadylite plus (PerkinElmer 6016757).
Cell Culture Medium consisted of DMEM medium with 10% FBS (Fetal Bovine Serum; Invitrogen 16140-071), 1 mg/ml G418 (Invitrogen 15140-122), 240 nM MTX (methotrexate; Sigma M9929) and 1% pen/strep (penicillin/streptomycin; Invitrogen 15140-122).
Assay Medium consisted of DMEM w/o phenol red, 10 mM Hepes and 1× Glutamax. The Assay Buffer consisted of 2% ovalbumin and 0.2% Pluronic F-68 in Assay Medium.
1) Cell stocks were thawed in a 37° C. water bath.
2) Cells were washed three times in PBS.
3) The cells were counted and adjusted to 5×10^3 cells/50 μl (1×10^5 cells/ml) in Assay Medium. A 50 μl aliquot of cells was transferred to each well in the assay plate.
4) Stocks of the test compounds and reference compounds were diluted to a concentration of 0.2 μM in Assay Buffer. Compounds were diluted 10-fold to give the following concentrations: 2×10^−7 M, […]; 2×10^−9 M, 2×10^−10 M, 2×10^−11 M, 2×10^−12 M, 2×10^−13 M, and 2×10^−14 M. 5) A 50 μl aliquot of compound or blank was transferred from the dilution plate to the assay plate. Compounds were tested at the following final concentrations: 1×10^−7 M, 1×10^−8 M; 1×10^−9 M, 1×10^−10 M, 1×10^−11 M, 1×10^−12 M, 1×10^−13 M, and 1×10^−14 M. 6) The assay plate was incubated for 3 h in a 5% CO2 incubator at 37° C. 7) The assay plate was removed from the incubator and allowed to stand at room temperature for 15 min. 8) A 100 μl aliquot of steadylite plus reagent was added to each well of the assay plate (reagent was light sensitive). 9) Each assay plate was covered with aluminum foil to protect it from light and shaken for 30 min at room temperature. 10) Each assay plate was read in a Packard TopCount NXT instrument. Calculations and Results
The data from the TopCount instrument were transferred to GraphPad Prism software. The software performs a non-linear regression (log(agonist) vs response).
A minimum of two replicates was measured for each sample. The reported values are averages of the replicates.

[3] = high serum albumin (2.0% HSA final assay concentration), read-out: High HSA IC50
[4] = low serum albumin (max. 0.001% final assay concentration), read-out: Low HSA IC50
[5] = High HSA IC50 (nM), high serum albumin (2.0% HSA final assay concentration)
[6] = Low HSA IC50 (nM), low serum albumin (max. 0.001% final assay concentration)

T1 sequence (P43220 24-463): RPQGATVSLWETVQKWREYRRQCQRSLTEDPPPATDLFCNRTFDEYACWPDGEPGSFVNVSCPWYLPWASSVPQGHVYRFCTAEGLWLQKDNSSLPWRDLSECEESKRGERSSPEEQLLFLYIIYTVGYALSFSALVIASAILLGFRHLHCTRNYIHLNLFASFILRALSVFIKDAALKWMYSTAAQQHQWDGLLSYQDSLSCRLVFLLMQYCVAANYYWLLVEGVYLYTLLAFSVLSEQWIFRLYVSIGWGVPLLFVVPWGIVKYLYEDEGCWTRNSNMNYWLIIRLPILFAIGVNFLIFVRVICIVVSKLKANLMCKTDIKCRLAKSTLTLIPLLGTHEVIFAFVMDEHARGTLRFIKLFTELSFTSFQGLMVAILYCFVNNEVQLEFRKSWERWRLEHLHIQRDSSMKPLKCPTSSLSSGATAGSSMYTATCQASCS

Row | IC50 [1, 3] | IC50 [1, 4] | Structure (SMILES) | EC50 [2] | IC50 [1, 5] | IC50 [1, 6]
1 | 194 nM | 0.82 nM | CC[C@H](C)[C@H](NC(=O)[C@H](Cc1ccccc1)NC(=O)[C@H](CCC(=O)O)NC(=O)[C@H](CCCNC(=N)N)NC(=O)[C@H](C)NC(=O)[C@H](C)NC(=O)[C@H](CCC(N)=O)NC(=O)[C@H](CCC(=O)O)NC(=O)[C@H](CCC(=O)O)NC(=O)[C@H](CC(C)C)NC(=O)[C@H](Cc1ccc(O)cc1)NC(=O)[C@H](CO)NC(=O)[C@H](CO)NC(=O)[C@@H](NC(=O)[C@H](CC(=O)O)NC(=O)[C@H](CO)NC(=O)[C@@H](NC(=O)[C@H](Cc1ccccc1)NC(=O)[C@@H](NC(=O)CNC(=O)[C@H](CCC(=O)O)NC(=O)C(C)(C)NC(=O)[C@@H](N)Cc1c[nH]cn1)[C@@H](C)O)[C@@H](C)O)C(C)C)C(=O)N[C@@H](C)C(=O)N[C@@H](Cc1c[nH]c2ccccc12)C(=O)N[C@@H](CC(C)C)C(=O)N[C@H](C(=O)N[C@@H](CCCNC(=N)N)C(=O)NCC(=O)N[C@@H](CCCNC(=N)N)C(=O)NCC(=O)N[C@@H](CCCCNC(=O)COCC(=O)NCCCOCCOCCOCCCNC(=O)CC[C@H](NC(=O)CCCCCCCCCCCCCCCCCCC(=O)O)C(=O)O)C(=O)NCC(=O)NCC(=O)N[C@@H](CO)C(=O)N[C@@H](CCCCNC(=O)COCC(=O)NCCCOCCOCCOCCCNC(=O)CC[C@H](NC(=O)CCCCCCCCCCCCCCCCCCC(=O)O)C(=O)O)C(=O)O)C(C)C [Example 22, N{Alpha}([Aib8,Glu22,Arg26,Arg34]-GLP-1-(7-37)-peptidyl)-N{Epsilon}[2-[2-[3-[2-[2-[3-[[(4S)-4-carboxy-4-(19-carboxynonadecanoylamino)butanoyl]amino]propoxy]ethoxy]ethoxy]propylamino]-2-oxoethoxy]acetyl]Lys-Gly-Gly-Ser-N{Epsilon}[2-[2-[3-[2-[2-[3-[[(4S)-4-carboxy-4-(19-carboxynonadecanoylamino)butanoyl]amino]propoxy]ethoxy]ethoxy]propylamino]-2-oxoethoxy]acetyl]Lys] (H-H[Aib]EGTFTSDVSSYLEEQAAREFIAWLVRGRGK(X3)GGSK(X3)-OH; N-terminus and C-terminus assumed) | 0.01 nM | – | –
2 | 30 nM | 0.08 nM | CC[C@H](C)[C@H](NC(=O)[C@H](Cc1ccccc1)NC(=O)[C@H](CCC(=O)O)NC(=O)[C@H](CCCNC(=N)N)NC(=O)[C@H](C)NC(=O)[C@H](C)NC(=O)[C@H](CCC(N)=O)NC(=O)[C@H](CCC(=O)O)NC(=O)[C@H](CCC(=O)O)NC(=O)[C@H](CC(C)C)NC(=O)[C@H](Cc1ccc(O)cc1)NC(=O)[C@H](CO)NC(=O)[C@H](CO)NC(=O)[C@@H](NC(=O)[C@H](CC(=O)O)NC(=O)[C@H](CO)NC(=O)[C@@H](NC(=O)[C@H](Cc1ccccc1)NC(=O)[C@@H](NC(=O)CNC(=O)[C@H](CCC(=O)O)NC(=O)C(C)(C)NC(=O)[C@@H](N)Cc1c[nH]cn1)[C@@H](C)O)[C@@H](C)O)C(C)C)C(=O)N[C@@H](C)C(=O)N[C@@H](Cc1c[nH]c2ccccc12)C(=O)N[C@@H](CC(C)C)C(=O)N[C@H](C(=O)N[C@@H](CCCNC(=N)N)C(=O)NCC(=O)N[C@@H](CCCNC(=N)N)C(=O)NCC(=O)N[C@@H](CCCCNC(=O)COCCOCCNC(=O)COCCOCCNC(=O)COCCOCCNC(=O)COCCOCCNC(=O)COCCOCCNC(=O)[C@@H](N)CCCCNC(=O)[C@@H](N)CCCCNC(=O)CCCCCCCCCCCCCCCCCCC(=O)O)C(=O)NCC(=O)NCC(=O)N[C@@H](CO)C(=O)N[C@@H](CCCCNC(=O)COCCOCCNC(=O)COCCOCCNC(=O)COCCOCCNC(=O)COCCOCCNC(=O)COCCOCCNC(=O)[C@@H](N)CCCCNC(=O)[C@@H](N)CCCCNC(=O)CCCCCCCCCCCCCCCCCCC(=O)O)C(=O)O)C(C)C [Example 27] (H-H[Aib]EGTFTSDVSSYLEEQAAREFIAWLVRGRGK([AEEA-AEEA-AEEA-AEEA-AEEA-εLys-εLys-C20 diacid])GGSK([AEEA-AEEA-AEEA-AEEA-AEEA-εLys-εLys-C20 diacid])-OH; N-terminus and C-terminus assumed) | 0.0044 nM | – | –
3 | – | – | CC[C@H](C)[C@H](NC(=O)[C@H](Cc1ccccc1)NC(=O)[C@H](CCC(=O)O)NC(=O)[C@H](CCCNC(=N)N)NC(=O)[C@H](C)NC(=O)[C@H](C)NC(=O)[C@H](CCC(N)=O)NC(=O)[C@H](CCC(=O)O)NC(=O)[C@H](CCC(=O)O)NC(=O)[C@H](CC(C)C)NC(=O)[C@H](Cc1ccc(O)cc1)NC(=O)[C@H](CO)NC(=O)[C@H](CO)NC(=O)[C@@H](NC(=O)[C@H](CC(=O)O)NC(=O)[C@H](CO)NC(=O)[C@@H](NC(=O)[C@H](Cc1ccccc1)NC(=O)[C@@H](NC(=O)CNC(=O)[C@H](CCC(=O)O)NC(=O)C(C)(C)NC(=O)[C@@H](N)Cc1c[nH]cn1)[C@@H](C)O)[C@@H](C)O)C(C)C)C(=O)N[C@@H](C)C(=O)N[C@@H](Cc1c[nH]c2ccccc12)C(=O)N[C@@H](CC(C)C)C(=O)N[C@H](C(=O)N[C@@H](CCCNC(=N)N)C(=O)NCC(=O)N[C@@H](CCCNC(=N)N)C(=O)NCC(=O)N[C@@H](CCCCNC(=O)COCCOCCNC(=O)COCCOCCNC(=O)CC[C@H](NC(=O)[C@H]1CC[C@H](CNC(=O)CCCCCCCCCCCCCCCCCCC(=O)O)CC1)C(=O)O)C(=O)N[C@@H](CO)C(=O)N[C@@H](C)C(=O)N[C@@H](CCC(=O)O)C(=O)N[C@@H](CCCCNC(=O)COCCOCCNC(=O)COCCOCCNC(=O)CC[C@H](NC(=O)[C@H]1CC[C@H](CNC(=O)CCCCCCCCCCCCCCCCCCC(=O)O)CC1)C(=O)O)C(=O)O)C(C)C [Example 13] (H-H[Aib]EGTFTSDVSSYLEEQAAREFIAWLVRGRGK([AEEA-AEEA-γGlu-Trx-C20 diacid])SAEK([AEEA-AEEA-γGlu-Trx-C20 diacid])-OH) | 0.024 nM | 160 nM | 1.4 nM
4 | – | – | CC[C@H](C)[C@H](NC(=O)[C@H](Cc1ccccc1)NC(=O)[C@H](CCC(=O)O)NC(=O)[C@H](CCCNC(=N)N)NC(=O)[C@H](C)NC(=O)[C@H](C)NC(=O)[C@H](CCC(N)=O)NC(=O)[C@H](CCC(=O)O)NC(=O)[C@H](CCC(=O)O)NC(=O)[C@H](CC(C)C)NC(=O)[C@H](Cc1ccc(O)cc1)NC(=O)[C@H](CO)NC(=O)[C@H](CO)NC(=O)[C@@H](NC(=O)[C@H](CC(=O)O)NC(=O)[C@H](CO)NC(=O)[C@@H](NC(=O)[C@H](Cc1ccccc1)NC(=O)[C@@H](NC(=O)CNC(=O)[C@H](CCC(=O)O)NC(=O)C(C)(C)NC(=O)[C@@H](N)Cc1c[nH]cn1)[C@@H](C)O)[C@@H](C)O)C(C)C)C(=O)N[C@@H](C)C(=O)N[C@@H](Cc1c[nH]c2ccccc12)C(=O)N[C@@H](CC(C)C)C(=O)N[C@H](C(=O)N[C@@H](CCCNC(=N)N)C(=O)NCC(=O)N[C@@H](CCCNC(=N)N)C(=O)NCC(=O)N[C@@H](CCCCNC(=O)COCCOCCNC(=O)COCCOCCNC(=O)CC[C@H](NC(=O)[C@H]1CC[C@H](CNC(=O)CCCCCCCCCCCCCCCCCCC(=O)O)CC1)C(=O)O)C(=O)N1CCC[C@H]1C(=O)N[C@@H](CCC(=O)O)C(=O)NCC(=O)N[C@@H](CCCCNC(=O)COCCOCCNC(=O)COCCOCCNC(=O)CC[C@H](NC(=O)[C@H]1CC[C@H](CNC(=O)CCCCCCCCCCCCCCCCCCC(=O)O)CC1)C(=O)O)C(=O)O)C(C)C [Example 12] (H-H[Aib]EGTFTSDVSSYLEEQAAREFIAWLVRGRGK([AEEA-AEEA-γGlu-Trx-C20 diacid])PEGK([AEEA-AEEA-γGlu-Trx-C20 diacid])-OH) | 0.024 nM | 212 nM | 1.4 nM
